# PMC4051630, “A Comparison of Protein Kinases Inhibitor Screening Methods Using Both Enzymatic Activity and Binding Affinity Determination” (PLoS ONE, 2014)
# Experiments:
# Test in all cases: Differential Scanning Fluorimetry (DSF) Tm shift
# Assay type in all cases: binding
# SRC Catalytic Domain = SRC Catalytic Domain (Homo sapiens, UniProt P12931); design: For all of them, we expressed and purified the catalytic domain separately; His-tag; made in house; host or cells: Escherichia coli; conditions: 2 µM protein, 10 µM inhibitor, average of 3 experiments, each in duplicate
# SRC Catalytic Domain, sequence (P12931 270-523 limits assumed): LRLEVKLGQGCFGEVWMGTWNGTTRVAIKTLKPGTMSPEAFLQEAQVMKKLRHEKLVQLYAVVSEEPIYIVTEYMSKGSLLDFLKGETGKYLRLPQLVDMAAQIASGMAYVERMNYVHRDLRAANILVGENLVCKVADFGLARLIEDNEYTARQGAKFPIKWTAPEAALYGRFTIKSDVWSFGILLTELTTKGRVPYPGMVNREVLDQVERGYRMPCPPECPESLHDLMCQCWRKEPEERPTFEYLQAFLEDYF
# PAK4 Catalytic Domain = target: T1, PAK4 Catalytic Domain (Homo sapiens, UniProt O96013); conditions: 2 µM protein, 10 µM inhibitor, average of 3 experiments, each in duplicate
# T1 construct: For all of them, we expressed and purified the catalytic domain separately; His-tag; made in house; host or cells: Escherichia coli
# T1 sequence (O96013 321-572 limits assumed): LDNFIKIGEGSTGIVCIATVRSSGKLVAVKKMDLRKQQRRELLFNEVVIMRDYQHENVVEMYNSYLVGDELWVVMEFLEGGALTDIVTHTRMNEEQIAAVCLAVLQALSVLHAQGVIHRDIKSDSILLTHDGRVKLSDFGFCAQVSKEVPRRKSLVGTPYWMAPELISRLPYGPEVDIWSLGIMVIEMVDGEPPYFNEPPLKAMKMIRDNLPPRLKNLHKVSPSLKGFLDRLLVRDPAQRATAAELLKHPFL
# CDK2 + Cyclin E = target: T2, CDK2 + Cyclin E (Homo sapiens, UniProt P24941); conditions: CDK2 + Cyclin E; 2 µM protein, 10 µM inhibitor; average of 3 experiments, each in duplicate
# T2 construct: CDK2 (P24941); 1–299; His-tag; made in house; host or cells: Escherichia coli
# DMPK Catalytic Domain = target: T3, DMPK Catalytic Domain (Homo sapiens, UniProt Q09013); conditions: 2 µM protein, 10 µM inhibitor, average of 3 experiments, each in duplicate
# T3 construct: For all of them, we expressed and purified the catalytic domain separately; His-tag; made in house; host or cells: Escherichia coli
# T3 sequence (Q09013 71-339 limits assumed): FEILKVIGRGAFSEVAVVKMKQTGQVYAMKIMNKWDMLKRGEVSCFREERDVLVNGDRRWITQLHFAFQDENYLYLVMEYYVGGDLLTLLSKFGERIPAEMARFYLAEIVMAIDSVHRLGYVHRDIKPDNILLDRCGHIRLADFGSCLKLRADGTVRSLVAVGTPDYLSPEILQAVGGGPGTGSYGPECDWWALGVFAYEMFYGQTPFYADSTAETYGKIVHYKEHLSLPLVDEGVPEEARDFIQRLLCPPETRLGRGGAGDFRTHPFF
# PAK7 Catalytic Domain = target: T4, PAK7 Catalytic Domain (Homo sapiens, UniProt Q9P286); conditions: 2 µM protein, 10 µM inhibitor, average of 3 experiments, each in duplicate
# T4 construct: For all of them, we expressed and purified the catalytic domain separately; His-tag; made in house; host or cells: Escherichia coli
# T4 sequence (Q9P286 449-700 limits assumed): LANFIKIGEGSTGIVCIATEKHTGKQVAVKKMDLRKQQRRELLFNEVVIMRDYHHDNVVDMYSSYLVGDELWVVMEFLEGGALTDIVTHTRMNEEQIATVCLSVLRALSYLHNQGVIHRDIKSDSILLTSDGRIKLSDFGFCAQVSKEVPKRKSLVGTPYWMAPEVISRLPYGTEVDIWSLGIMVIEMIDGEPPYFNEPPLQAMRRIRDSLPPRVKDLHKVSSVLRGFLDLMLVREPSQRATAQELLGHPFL
# STK3 Catalytic Domain = target: T5, STK3 Catalytic Domain (Homo sapiens, UniProt Q13188); conditions: 2 µM protein, 10 µM inhibitor, average of 3 experiments, each in duplicate
# T5 construct: For all of them, we expressed and purified the catalytic domain separately; His-tag; made in house; host or cells: Escherichia coli
# T5 sequence (Q13188 27-278 limits assumed): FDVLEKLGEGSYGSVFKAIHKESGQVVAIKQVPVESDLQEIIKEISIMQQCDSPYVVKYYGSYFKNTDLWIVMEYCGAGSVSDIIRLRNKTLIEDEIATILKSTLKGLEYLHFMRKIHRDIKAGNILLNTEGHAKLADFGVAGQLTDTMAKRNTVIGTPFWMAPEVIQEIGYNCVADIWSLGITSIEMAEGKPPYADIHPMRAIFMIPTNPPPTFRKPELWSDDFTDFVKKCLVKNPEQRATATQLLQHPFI
# [1] = target: SRC Catalytic Domain+SH2+SH3 (Homo sapiens, UniProt P12931); conditions: 2 µM protein, 10 µM inhibitor, average of 3 experiments, each in duplicate
# SRC Catalytic Domain+SH2+SH3, sequence (P12931 84-523 limits assumed): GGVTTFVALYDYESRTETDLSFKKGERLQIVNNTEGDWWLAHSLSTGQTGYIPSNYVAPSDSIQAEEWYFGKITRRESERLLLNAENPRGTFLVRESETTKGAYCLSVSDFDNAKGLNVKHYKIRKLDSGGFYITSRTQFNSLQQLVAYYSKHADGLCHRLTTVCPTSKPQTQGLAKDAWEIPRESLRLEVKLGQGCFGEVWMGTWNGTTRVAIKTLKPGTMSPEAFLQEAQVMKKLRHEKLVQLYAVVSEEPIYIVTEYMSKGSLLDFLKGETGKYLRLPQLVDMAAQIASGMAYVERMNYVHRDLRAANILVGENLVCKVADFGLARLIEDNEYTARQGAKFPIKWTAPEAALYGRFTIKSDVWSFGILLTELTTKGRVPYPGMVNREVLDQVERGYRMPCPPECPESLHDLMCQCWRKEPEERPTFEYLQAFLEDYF
# [2] = target: T6, STK3 Catalytic domain+SARAH (Homo sapiens, UniProt Q13188); conditions: 2 µM protein, 10 µM inhibitor, average of 3 experiments, each in duplicate
# T6 construct: for 8, we also made a longer version containing one or more additional domains; His-tag; made in house; host or cells: Escherichia coli
# T6 sequence (Q13188 1-491): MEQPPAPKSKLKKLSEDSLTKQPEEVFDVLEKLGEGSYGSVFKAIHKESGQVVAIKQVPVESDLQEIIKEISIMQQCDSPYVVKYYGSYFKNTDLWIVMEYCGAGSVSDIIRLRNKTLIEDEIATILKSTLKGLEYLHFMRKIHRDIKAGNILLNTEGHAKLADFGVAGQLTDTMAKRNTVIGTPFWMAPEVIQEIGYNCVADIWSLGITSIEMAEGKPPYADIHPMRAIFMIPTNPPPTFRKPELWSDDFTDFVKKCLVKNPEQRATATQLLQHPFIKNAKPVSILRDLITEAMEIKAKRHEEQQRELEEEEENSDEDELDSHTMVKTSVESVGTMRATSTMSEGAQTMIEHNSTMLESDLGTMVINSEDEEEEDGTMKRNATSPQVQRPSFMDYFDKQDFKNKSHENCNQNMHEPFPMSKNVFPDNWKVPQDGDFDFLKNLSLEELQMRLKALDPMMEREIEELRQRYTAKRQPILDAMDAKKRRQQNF
# FES Catalytic Domain = target: T7, FES Catalytic Domain (Homo sapiens, UniProt P07332); conditions: 2 µM protein, 10 µM inhibitor, average of 3 experiments, each in duplicate
# T7 construct: For all of them, we expressed and purified the catalytic domain separately; His-tag; made in house; host or cells: Escherichia coli
# T7 sequence (P07332 561-822 limits assumed): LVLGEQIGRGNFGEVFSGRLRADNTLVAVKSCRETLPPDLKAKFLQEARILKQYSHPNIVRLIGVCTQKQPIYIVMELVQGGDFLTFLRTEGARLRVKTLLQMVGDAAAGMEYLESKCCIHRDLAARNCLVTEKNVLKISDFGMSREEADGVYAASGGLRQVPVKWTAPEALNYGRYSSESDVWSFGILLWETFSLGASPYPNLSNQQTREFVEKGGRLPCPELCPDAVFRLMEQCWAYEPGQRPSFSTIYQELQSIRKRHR
# CHK2 Catalytic Domain = target: T8, CHK2 Catalytic Domain (Homo sapiens, UniProt O96017); conditions: 2 µM protein, 10 µM inhibitor, average of 3 experiments, each in duplicate
# T8 construct: For all of them, we expressed and purified the catalytic domain separately; His-tag; made in house; host or cells: Escherichia coli
# T8 sequence (O96017 220-486 limits assumed): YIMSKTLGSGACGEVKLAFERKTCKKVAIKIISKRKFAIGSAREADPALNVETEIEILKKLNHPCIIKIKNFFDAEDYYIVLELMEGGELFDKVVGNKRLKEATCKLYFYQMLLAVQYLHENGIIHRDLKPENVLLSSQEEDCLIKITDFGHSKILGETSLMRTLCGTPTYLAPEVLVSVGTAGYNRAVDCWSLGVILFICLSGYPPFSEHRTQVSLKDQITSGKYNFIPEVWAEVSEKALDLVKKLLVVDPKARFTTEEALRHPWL
# CDK2 + Cyclin A = target: T9, CDK2 + Cyclin A (Homo sapiens, UniProt P24941); conditions: CDK2 + Cyclin A; 2 µM protein, 10 µM inhibitor; average of 3 experiments, each in duplicate
# T9 construct: CDK2 (P24941); 1–299; His-tag; made in house; host or cells: Escherichia coli
# [3] = target: T10, PAK4 Catalytic Domain+PBD (Homo sapiens, UniProt O96013); conditions: 2 µM protein, 10 µM inhibitor, average of 3 experiments, each in duplicate
# T10 construct: for 8, we also made a longer version containing one or more additional domains; His-tag; made in house; host or cells: Escherichia coli
# T10 sequence (O96013 whole entry, the tested form may be a part): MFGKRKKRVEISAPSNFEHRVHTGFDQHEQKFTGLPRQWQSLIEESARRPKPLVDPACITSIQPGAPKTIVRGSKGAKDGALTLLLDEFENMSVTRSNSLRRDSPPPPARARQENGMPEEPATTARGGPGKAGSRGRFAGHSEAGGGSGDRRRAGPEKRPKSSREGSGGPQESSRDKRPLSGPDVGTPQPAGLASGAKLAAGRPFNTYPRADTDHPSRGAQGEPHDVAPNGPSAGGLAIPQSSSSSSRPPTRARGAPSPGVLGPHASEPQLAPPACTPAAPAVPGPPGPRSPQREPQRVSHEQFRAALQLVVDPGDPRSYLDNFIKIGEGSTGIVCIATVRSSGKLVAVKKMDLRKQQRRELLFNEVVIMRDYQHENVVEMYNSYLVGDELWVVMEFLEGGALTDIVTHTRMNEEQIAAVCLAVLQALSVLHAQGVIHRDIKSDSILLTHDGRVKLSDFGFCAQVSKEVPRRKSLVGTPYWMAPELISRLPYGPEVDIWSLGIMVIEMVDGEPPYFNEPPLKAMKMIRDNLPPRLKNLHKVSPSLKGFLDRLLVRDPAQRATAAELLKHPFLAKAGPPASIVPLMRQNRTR
# FES Catalytic Domain+SH2 = target: T11, FES Catalytic Domain+SH2 (Homo sapiens, UniProt P07332); conditions: 2 µM protein, 10 µM inhibitor, average of 3 experiments, each in duplicate
# T11 construct: for 8, we also made a longer version containing one or more additional domains; His-tag; made in house; host or cells: Escherichia coli
# T11 sequence (P07332 448-822 limits assumed): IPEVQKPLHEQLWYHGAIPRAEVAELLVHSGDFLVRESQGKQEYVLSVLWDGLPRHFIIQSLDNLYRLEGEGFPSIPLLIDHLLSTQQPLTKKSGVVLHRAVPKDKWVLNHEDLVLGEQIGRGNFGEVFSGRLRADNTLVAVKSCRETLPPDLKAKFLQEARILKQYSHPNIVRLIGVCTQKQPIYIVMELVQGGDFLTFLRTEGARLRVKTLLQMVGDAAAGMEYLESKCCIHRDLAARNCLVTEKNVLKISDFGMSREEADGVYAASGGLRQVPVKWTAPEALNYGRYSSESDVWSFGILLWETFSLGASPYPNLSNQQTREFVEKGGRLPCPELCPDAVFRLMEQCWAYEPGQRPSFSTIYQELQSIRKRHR
# AKT3 Catalytic Domain = target: T12, AKT3 Catalytic Domain (Homo sapiens, UniProt Q9Y243); conditions: 2 µM protein, 10 µM inhibitor, average of 3 experiments, each in duplicate
# T12 construct: AKT3 (Q9Y243); CD; His-tag; made in house; host or cells: Escherichia coli
# T12 sequence (Q9Y243 122-479): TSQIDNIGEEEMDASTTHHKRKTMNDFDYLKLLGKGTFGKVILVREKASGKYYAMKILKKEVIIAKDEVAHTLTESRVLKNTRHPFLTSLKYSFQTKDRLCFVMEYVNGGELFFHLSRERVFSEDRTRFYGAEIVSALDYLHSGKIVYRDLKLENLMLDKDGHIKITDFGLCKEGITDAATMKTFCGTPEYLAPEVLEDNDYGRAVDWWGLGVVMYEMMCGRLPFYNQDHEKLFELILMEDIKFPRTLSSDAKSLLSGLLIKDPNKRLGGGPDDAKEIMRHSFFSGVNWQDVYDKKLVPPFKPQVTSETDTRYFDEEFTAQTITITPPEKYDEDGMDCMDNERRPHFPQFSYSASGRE
# FAK2 Catalytic Domain = target: T13, FAK2 Catalytic Domain (Homo sapiens, UniProt Q14289); conditions: 2 µM protein, 10 µM inhibitor, average of 3 experiments, each in duplicate
# T13 construct: For all of them, we expressed and purified the catalytic domain separately; His-tag; made in house; host or cells: Escherichia coli
# T13 sequence (Q14289 425-683 limits assumed): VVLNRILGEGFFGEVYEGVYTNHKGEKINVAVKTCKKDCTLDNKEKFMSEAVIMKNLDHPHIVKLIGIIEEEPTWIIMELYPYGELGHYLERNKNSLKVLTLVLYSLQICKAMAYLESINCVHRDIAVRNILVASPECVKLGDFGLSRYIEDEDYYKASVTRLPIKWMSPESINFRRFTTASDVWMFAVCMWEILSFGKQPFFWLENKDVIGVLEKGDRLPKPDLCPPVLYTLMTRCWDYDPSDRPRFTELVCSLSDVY
Melting temperature (Tm) shift (SRC Catalytic Domain) [degrees Celcius],Melting temperature (Tm) shift (PAK4 Catalytic Domain) [degrees Celcius],Melting temperature (Tm) shift (CDK2 + Cyclin E) [degrees Celcius],Melting temperature (Tm) shift (DMPK Catalytic Domain) [degrees Celcius],Melting temperature (Tm) shift (PAK7 Catalytic Domain) [degrees Celcius],Melting temperature (Tm) shift (STK3 Catalytic Domain) [degrees Celcius],Melting temperature (Tm) shift [1] [degrees Celcius],Melting temperature (Tm) shift [2] [degrees Celcius],Melting temperature (Tm) shift (FES Catalytic Domain) [degrees Celcius],Melting temperature (Tm) shift (CHK2 Catalytic Domain) [degrees Celcius],Melting temperature (Tm) shift (CDK2 + Cyclin A) [degrees Celcius],Melting temperature (Tm) shift [3] [degrees Celcius],Melting temperature (Tm) shift (FES Catalytic Domain+SH2) [degrees Celcius],Melting temperature (Tm) shift (AKT3 Catalytic Domain) [degrees Celcius],Melting temperature (Tm) shift (FAK2 Catalytic Domain) [degrees Celcius],SMILES
1.4,0.3,0.1,0.3,0.0,0.2,0.8,0.2,0.0,11.2,0.0,0.0,0.1,0.1,,COc1cc2ncnc(Nc3ccc(OCc4ccccc4)cc3)c2cc1OC [EGFR/ErbB-2 Inhibitor]
3.0,5.5,2.3,3.2,0.0,3.6,1.8,4.3,5.5,8.3,4.3,7.3,3.4,0.0,,COc1cc(Nc2ncc3ccn(-c4cccc(CCC#N)c4)c3n2)cc(OC)c1OC [Keratinocyte Differentiation Inducer]

# Further lines, the molecule ahead of its results:
SMILES,Melting temperature (Tm) shift (SRC Catalytic Domain) [degrees Celcius],Melting temperature (Tm) shift (PAK4 Catalytic Domain) [degrees Celcius],Melting temperature (Tm) shift (CDK2 + Cyclin E) [degrees Celcius],Melting temperature (Tm) shift (DMPK Catalytic Domain) [degrees Celcius],Melting temperature (Tm) shift (PAK7 Catalytic Domain) [degrees Celcius],Melting temperature (Tm) shift (STK3 Catalytic Domain) [degrees Celcius],Melting temperature (Tm) shift [1] [degrees Celcius],Melting temperature (Tm) shift [2] [degrees Celcius],Melting temperature (Tm) shift (FES Catalytic Domain) [degrees Celcius],Melting temperature (Tm) shift (CHK2 Catalytic Domain) [degrees Celcius],Melting temperature (Tm) shift (CDK2 + Cyclin A) [degrees Celcius],Melting temperature (Tm) shift [3] [degrees Celcius],Melting temperature (Tm) shift (FES Catalytic Domain+SH2) [degrees Celcius],Melting temperature (Tm) shift (AKT3 Catalytic Domain) [degrees Celcius],Melting temperature (Tm) shift (FAK2 Catalytic Domain) [degrees Celcius]
COc1ccc2c(c1)c(C1=C(c3c[nH]c4ccccc34)C(=O)NC1=O)cn2CCCN(C)C [Gö 6983],0.2,0.0,0.1,1.9,0.1,0.2,,0.7,0.9,5.6,0.4,,0.7,0.0,
O=C1Nc2ccccc2C1=C1Nc2ccccc2C1=NOCCC(O)CO (centres unmarked) [Indirubin Derivative E804],3.1,1.9,1.1,0.6,1.7,5.2,2.8,3.5,1.1,2.2,,2.1,1.0,0.7,2.8
Cc1cc(C=C2C(=O)C=CC2=O)cc(C)c1O [TX-1918],0.0,,0.4,,,0.1,,,,2.6,0.4,1.1,,4.5,0.5
